Test results reported in ChEMBL document CHEMBL1201862, “PubChem BioAssay data set” (2004).
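Five concentrations, 48 hours, 96-well plates. GI50: concentration for 50% inhibition of growth.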 Active and inactive are the calls of the source. Cut-off read from the data, not from the text of the source: active = GI50 up to about 1.1 µM and inactive = higher.

How the values were obtained:
Experiment in all cases: growth of human tumour cells (NCI), 48 h
CCRF-CEM = test system: CCRF-CEM
786-0 = test system: 786-0
SNB-19 = test system: SNB-19
UACC-62 = test system: UACC-62
COLO 205 = test system: COLO 205
HCC 2998 = test system: HCC 2998
U-251 = test system: U-251
SF-295 = test system: SF-295
SK-MEL-5 = test system: SK-MEL-5
OVCAR-8 = test system: OVCAR-8
M14 = test system: M14
RPMI-8226 = test system: RPMI-8226
IGROV-1 = test system: IGROV-1
SK-MEL-28 = test system: SK-MEL-28
A549 = test system: A549
MOLT-4 = test system: MOLT-4
SR = test system: SR
SK-OV-3 = test system: SK-OV-3
MCF7 = test system: MCF7

Row | Structure (SMILES) | GI50 (CCRF-CEM) | GI50 (786-0) | GI50 (SNB-19) | GI50 (UACC-62) | GI50 (COLO 205) | GI50 (HCC 2998) | GI50 (U-251) | GI50 (SF-295) | GI50 (SK-MEL-5) | GI50 (OVCAR-8) | GI50 (M14) | GI50 (RPMI-8226) | GI50 (IGROV-1) | GI50 (SK-MEL-28) | GI50 (A549) | GI50 (MOLT-4) | GI50 (SR) | GI50 (SK-OV-3) | GI50 (MCF7)
1 | C=CC1(CC)/C(=N\O)C(CC)(CC)C(=O)N1O (stereo not given) | > 100 µM (inactive) | > 100 µM (inactive) | > 100 µM (inactive) | > 100 µM (inactive) | > 100 µM (inactive) | > 100 µM (inactive) | > 100 µM (inactive) | > 100 µM (inactive) | > 100 µM (inactive) | > 100 µM (inactive) | > 100 µM (inactive) | > 100 µM (inactive) | > 100 µM (inactive) | > 100 µM (inactive) | > 100 µM (inactive) | > 100 µM (inactive) | > 100 µM (inactive) | > 100 µM (inactive) | –
2 | N#Cc1cc([N+](=O)[O-])ccc1NC(=O)/C(=N/N)C(C(=O)c1ccc(Cl)c(Cl)c1)C1OC(=O)c2ccccc21 (stereo not given) | 38.9 µM (inactive) | 59.3 µM (inactive) | 69.3 µM (inactive) | 31 µM (inactive) | > 100 µM (inactive) | 65.9 µM (inactive) | 42.9 µM (inactive) | 26.4 µM (inactive) | 63.7 µM (inactive) | 28.1 µM (inactive) | – | 46.1 µM (inactive) | > 100 µM (inactive) | 35.6 µM (inactive) | 23.7 µM (inactive) | 36.8 µM (inactive) | 54.2 µM (inactive) | > 100 µM (inactive) | –
3 | CCCCCCC1CCC2CCCC(C)N12 (stereo not given) | 19 µM (inactive) | 30.1 µM (inactive) | > 100 µM (inactive) | > 100 µM (inactive) | 16 µM (inactive) | 22.6 µM (inactive) | 10.5 µM (inactive) | 43.4 µM (inactive) | 49.8 µM (inactive) | 45.6 µM (inactive) | 25.3 µM (inactive) | 22.9 µM (inactive) | – | 53.6 µM (inactive) | 77.1 µM (inactive) | 18.3 µM (inactive) | 23.2 µM (inactive) | – | –
4 | CN(C)c1ccc(/C=N/C23CC4CC(CC(C4)C2)C3)cc1 | > 100 µM (inactive) | > 100 µM (inactive) | > 100 µM (inactive) | > 100 µM (inactive) | > 100 µM (inactive) | > 100 µM (inactive) | > 100 µM (inactive) | > 100 µM (inactive) | > 10 µM (inactive) | > 100 µM (inactive) | > 100 µM (inactive) | > 100 µM (inactive) | > 100 µM (inactive) | > 100 µM (inactive) | > 100 µM (inactive) | > 100 µM (inactive) | > 100 µM (inactive) | > 100 µM (inactive) | –
5 | Cc1ccc(NC(=O)/C(=N/NC(=O)C[N+](C)(C)C)c2nc3ccccc3nc2O)cc1 | – | > 100 µM (inactive) | > 100 µM (inactive) | > 100 µM (inactive) | 76.9 µM (inactive) | > 100 µM (inactive) | 27.4 µM (inactive) | > 100 µM (inactive) | > 100 µM (inactive) | > 100 µM (inactive) | > 100 µM (inactive) | > 100 µM (inactive) | > 100 µM (inactive) | > 100 µM (inactive) | > 100 µM (inactive) | > 100 µM (inactive) | > 100 µM (inactive) | > 100 µM (inactive) | –
6 | O=C(/C=C/c1c[nH]c2ccccc12)c1ccccc1O | – | 12.5 µM (inactive) | 16.5 µM (inactive) | 8.17 µM (inactive) | – | 11 µM (inactive) | 13.4 µM (inactive) | 10.4 µM (inactive) | – | 12.9 µM (inactive) | 14 µM (inactive) | 9.27 µM (inactive) | 3.83 µM (inactive) | 19.2 µM (inactive) | 10.5 µM (inactive) | 7.41 µM (inactive) | – | 15.1 µM (inactive) | 3.1 µM (inactive)
7 | CCCCc1ccc2[n+](c1)C(C(=O)OCC)=PC2 (stereo not given) | 42.4 µM (inactive) | 72.1 µM (inactive) | – | > 100 µM (inactive) | > 100 µM (inactive) | > 100 µM (inactive) | 71.4 µM (inactive) | > 100 µM (inactive) | > 100 µM (inactive) | > 100 µM (inactive) | > 100 µM (inactive) | 28.2 µM (inactive) | > 100 µM (inactive) | > 100 µM (inactive) | > 100 µM (inactive) | 37.5 µM (inactive) | 32.7 µM (inactive) | > 100 µM (inactive) | 30.7 µM (inactive)
8 | CS(=O)(=O)c1ccc(-c2cc(-c3ccc(S(C)(=O)=O)cc3)[n+](-c3cc(-c4ccccc4)c([O-])c(-c4ccccc4)c3)c(-c3ccc(S(C)(=O)=O)cc3)c2)cc1 | – | > 100 µM (inactive) | > 100 µM (inactive) | > 100 µM (inactive) | > 100 µM (inactive) | > 100 µM (inactive) | > 100 µM (inactive) | > 100 µM (inactive) | – | > 100 µM (inactive) | > 100 µM (inactive) | > 100 µM (inactive) | > 100 µM (inactive) | > 100 µM (inactive) | > 100 µM (inactive) | > 100 µM (inactive) | > 100 µM (inactive) | – | –
9 | Cc1cc(N)c(C)c2c1[nH]c1ccc(O)cc12 | 20.7 µM (inactive) | 91.8 µM (inactive) | > 100 µM (inactive) | – | 47.9 µM (inactive) | > 100 µM (inactive) | 88.5 µM (inactive) | > 100 µM (inactive) | – | 88.5 µM (inactive) | > 100 µM (inactive) | 48.4 µM (inactive) | – | > 100 µM (inactive) | > 100 µM (inactive) | 32.4 µM (inactive) | 45 µM (inactive) | – | –
10 | O=c1c(NO)c([N+](=O)[O-])cnn1-c1ccccc1 | 0.971 µM (active) | 6.07 µM (inactive) | 10.9 µM (inactive) | 4.2 µM (inactive) | 3.62 µM (inactive) | 5.47 µM (inactive) | 3.12 µM (inactive) | 12.2 µM (inactive) | 6 µM (inactive) | 2.63 µM (inactive) | 1.99 µM (inactive) | 4.93 µM (inactive) | 21.1 µM (inactive) | 3.43 µM (inactive) | 18.5 µM (inactive) | 2.39 µM (inactive) | 2.78 µM (inactive) | 7.01 µM (inactive) | 2.55 µM (inactive)
11 | Cc1c(-c2nnc(-c3ccccc3)o2)c(=O)n(-c2ccccc2)n1C | > 100 µM (inactive) | > 100 µM (inactive) | > 100 µM (inactive) | > 100 µM (inactive) | > 100 µM (inactive) | > 100 µM (inactive) | > 100 µM (inactive) | > 100 µM (inactive) | – | > 100 µM (inactive) | > 100 µM (inactive) | > 100 µM (inactive) | > 100 µM (inactive) | > 100 µM (inactive) | > 100 µM (inactive) | > 100 µM (inactive) | > 100 µM (inactive) | > 100 µM (inactive) | –
12 | On1c(-c2ccccc2)c(-c2ccccc2N2CCCC2)c2ccccc21 | > 100 µM (inactive) | > 100 µM (inactive) | > 100 µM (inactive) | > 100 µM (inactive) | > 100 µM (inactive) | > 100 µM (inactive) | > 100 µM (inactive) | > 100 µM (inactive) | > 100 µM (inactive) | > 100 µM (inactive) | > 100 µM (inactive) | > 100 µM (inactive) | > 100 µM (inactive) | > 100 µM (inactive) | > 100 µM (inactive) | > 100 µM (inactive) | > 100 µM (inactive) | > 100 µM (inactive) | –
13 | CC[n+]1c(/C=C/c2cc(C(=O)OC)n3c2sc2ccccc23)sc2ccccc21 | 0.214 µM (active) | 19.1 µM (inactive) | – | 0.394 µM (active) | 22.9 µM (inactive) | 14.6 µM (inactive) | – | – | 15 µM (inactive) | – | 18.8 µM (inactive) | > 10 µM (inactive) | 16.9 µM (inactive) | – | 18.8 µM (inactive) | 11.4 µM (inactive) | > 10 µM (inactive) | 17.9 µM (inactive) | –
14 | Cc1ccc(NC(=O)CC2C(=O)Nc3ccccc3S2(=O)=O)cc1C (stereo not given) | > 100 µM (inactive) | > 100 µM (inactive) | > 100 µM (inactive) | 84.7 µM (inactive) | – | > 100 µM (inactive) | > 100 µM (inactive) | > 100 µM (inactive) | > 100 µM (inactive) | > 100 µM (inactive) | > 100 µM (inactive) | 62.8 µM (inactive) | > 100 µM (inactive) | > 100 µM (inactive) | > 100 µM (inactive) | > 100 µM (inactive) | > 100 µM (inactive) | – | –
15 | O=C(/C=C/c1ccccc1)c1cc(C(=O)/C=C/c2ccccc2)c(O)cc1O | – | > 100 µM (inactive) | > 100 µM (inactive) | 49.8 µM (inactive) | > 100 µM (inactive) | 88.3 µM (inactive) | – | – | 69.3 µM (inactive) | > 100 µM (inactive) | > 100 µM (inactive) | 65.6 µM (inactive) | > 100 µM (inactive) | 40.5 µM (inactive) | > 100 µM (inactive) | > 100 µM (inactive) | – | > 100 µM (inactive) | 51.4 µM (inactive)
16 | COc1cc(-c2[nH]ccc2Cl)oc1C1=C2N=C3C=C2C(C(C)C)C1CCCCCCCC3 (stereo not given) | 0.275 µM (active) | 0.449 µM (active) | 1.69 µM (inactive) | 0.794 µM (active) | 0.566 µM (active) | 0.341 µM (active) | 0.711 µM (active) | 1.15 µM (inactive) | 0.321 µM (active) | 0.805 µM (active) | 0.438 µM (active) | 0.339 µM (active) | 0.993 µM (active) | 1.35 µM (inactive) | 0.912 µM (active) | 0.433 µM (active) | 0.292 µM (active) | 1.6 µM (inactive) | 0.603 µM (active)
